Data taken from PubChem BioAssay AID1963845 (Molecular Pharmacology Branch, DTP, NCI, 2024).

Tested on: 429239-143-T-J1-PDC complex spheroid viability
Test: Anticancer human tumor 429239-143-T-J1-PDC patient-derived small cell lung carcinoma cell line growth inhibition [POLQ]
Conditions: for IC50: curve of first compound; for viability, T/C: stronger effect = lower value
Procedure, shortened: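 PDC + HUVEC + MSC complex spheroids; POLQ inhibitors ± partner drugs; top conc. at/near clinical Cmax, else 10 microM (SN-38 1 microM), half-log dilutions; 37 degrees C, 5% CO2.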

[1] = second compound 0.0316 µM, first compound 0.0316 µM
[2] = second compound 0.0316 µM, first compound 0.1 µM
[3] = second compound 0.0316 µM, first compound 0.316 µM
[4] = second compound 0.0316 µM, first compound 1 µM
[5] = second compound 0.1 µM, first compound 0.0316 µM
[6] = second compound 0.1 µM, first compound 0.1 µM
[7] = second compound 0.1 µM, first compound 0.316 µM
[8] = second compound 0.1 µM, first compound 1 µM
[9] = second compound 0.316 µM, first compound 0.0316 µM
[10] = second compound 0.316 µM, first compound 0.1 µM
[11] = second compound 0.316 µM, first compound 0.316 µM
[12] = second compound 0.316 µM, first compound 1 µM
[13] = second compound 1 µM, first compound 0.0316 µM
[14] = second compound 1 µM, first compound 0.1 µM
[15] = second compound 1 µM, first compound 0.316 µM
[16] = second compound 1 µM, first compound 1 µM
[17] = second compound 3.16 µM, first compound 0.0316 µM
[18] = second compound 3.16 µM, first compound 0.1 µM
[19] = second compound 3.16 µM, first compound 0.316 µM
[20] = second compound 3.16 µM, first compound 1 µM
[21] = second compound 10 µM, first compound 0.0316 µM
[22] = second compound 10 µM, first compound 0.1 µM
[23] = second compound 10 µM, first compound 0.316 µM
[24] = second compound 10 µM, first compound 1 µM
[25] = second compound 0.0316 µM, first compound 3.16 µM
[26] = second compound 0.0316 µM, first compound 10 µM
[27] = second compound 0.1 µM, first compound 3.16 µM
[28] = second compound 0.1 µM, first compound 10 µM
[29] = second compound 0.316 µM, first compound 3.16 µM
[30] = second compound 0.316 µM, first compound 10 µM
[31] = second compound 1 µM, first compound 3.16 µM
[32] = second compound 1 µM, first compound 10 µM
[33] = second compound 3.16 µM, first compound 3.16 µM
[34] = second compound 3.16 µM, first compound 10 µM
[35] = second compound 10 µM, first compound 3.16 µM
[36] = second compound 10 µM, first compound 10 µM
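Note: luminescence signal used as surrogate measure of viable cells; spheroids exposed to compounds for seven days before readout.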
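Throughout, for viability, T/C: 100% = DMSO vehicle control viability as luminescence relative to vehicle.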

## COc1cccc(OCCCN)c1-c1cc(Nc2cnc(C#N)cn2)n[nH]1 + Nc1ccc(C#CCN(C(=O)Cc2ncc(C(F)(F)F)cc2C(F)(F)F)c2ccc(F)cc2)nn1
Second compound 0.0316 µM
  IC50: 0.398 µM
Second compound 0.1 µM
  IC50: 0.305 µM
Second compound 0.316 µM
  IC50: 0.219 µM
Second compound 1 µM
  IC50: 0.224 µM
Second compound 3.16 µM
  IC50: 0.234 µM
Second compound 10 µM
  IC50: 0.16 µM
Second compound 0.0316 µM, first compound 0.00316 µM
  viability, T/C: 91.8%
Second compound 0.0316 µM, first compound 0.01 µM
  viability, T/C: 94.8%
[1]
  viability, T/C: 87.6%
[2]
  viability, T/C: 72.7%
[3]
  viability, T/C: 55.2%
[4]
  viability, T/C: 33.3%
Second compound 0.1 µM, first compound 0.00316 µM
  viability, T/C: 95.1%
Second compound 0.1 µM, first compound 0.01 µM
  viability, T/C: 97.2%
[5]
  viability, T/C: 83.1%
[6]
  viability, T/C: 71.3%
[7]
  viability, T/C: 49.4%
[8]
  viability, T/C: 28.7%
Second compound 0.316 µM, first compound 0.00316 µM
  viability, T/C: 103%
Second compound 0.316 µM, first compound 0.01 µM
  viability, T/C: 98.9%
[9]
  viability, T/C: 98.7%
[10]
  viability, T/C: 65.3%
[11]
  viability, T/C: 45.4%
[12]
  viability, T/C: 33.6%
Second compound 1 µM, first compound 0.00316 µM
  viability, T/C: 102%
Second compound 1 µM, first compound 0.01 µM
  viability, T/C: 90.2%
[13]
  viability, T/C: 83.8%
[14]
  viability, T/C: 68.8%
[15]
  viability, T/C: 40.3%
[16]
  viability, T/C: 27.1%
Second compound 3.16 µM, first compound 0.00316 µM
  viability, T/C: 105%
Second compound 3.16 µM, first compound 0.01 µM
  viability, T/C: 89.1%
[17]
  viability, T/C: 90.6%
[18]
  viability, T/C: 74.5%
[19]
  viability, T/C: 40.3%
[20]
  viability, T/C: 24.5%
Second compound 10 µM, first compound 0.00316 µM
  viability, T/C: 102%
Second compound 10 µM, first compound 0.01 µM
  viability, T/C: 86.5%
[21]
  viability, T/C: 75.7%
[22]
  viability, T/C: 60%
[23]
  viability, T/C: 36.2%
[24]
  viability, T/C: 26.1%

## CCc1cc2c(N3CCc4c(cc(Cn5ccnc5)cc4-c4cn(C)nc4C(F)(F)F)C3=O)cc(C)nc2c(OC)n1 + Cc1cccc(N(C)C(=O)C2C(O)CCN2c2nc(C)cc(C(F)(F)F)c2C#N)c1
Second compound 0.0316 µM
  IC50: > 10 µM
Second compound 0.1 µM
  IC50: > 10 µM
Second compound 0.316 µM
  IC50: 8.03 µM
Second compound 1 µM
  IC50: 8.37 µM
Second compound 3.16 µM
  IC50: > 10 µM
Second compound 10 µM
  IC50: 4.71 µM
[1]
  viability, T/C: 110%
[2]
  viability, T/C: 97.7%
[3]
  viability, T/C: 95%
[4]
  viability, T/C: 85.6%
[25]
  viability, T/C: 72.7%
[26]
  viability, T/C: 48.5%
[5]
  viability, T/C: 104%
[6]
  viability, T/C: 104%
[7]
  viability, T/C: 87.6%
[8]
  viability, T/C: 79%
[27]
  viability, T/C: 74.5%
[28]
  viability, T/C: 49.8%
[9]
  viability, T/C: 104%
[10]
  viability, T/C: 99.6%
[11]
  viability, T/C: 92.3%
[12]
  viability, T/C: 78.2%
[29]
  viability, T/C: 78.8%
[30]
  viability, T/C: 42.5%
[13]
  viability, T/C: 108%
[14]
  viability, T/C: 96.1%
[15]
  viability, T/C: 91.8%
[16]
  viability, T/C: 85%
[31]
  viability, T/C: 74.3%
[32]
  viability, T/C: 44.1%
[17]
  viability, T/C: 105%
[18]
  viability, T/C: 101%
[19]
  viability, T/C: 91.6%
[20]
  viability, T/C: 90.6%
[33]
  viability, T/C: 77.5%
[34]
  viability, T/C: 54.6%
[21]
  viability, T/C: 108%
[22]
  viability, T/C: 98.9%
[23]
  viability, T/C: 85.3%
[24]
  viability, T/C: 82.5%
[35]
  viability, T/C: 63.3%
[36]
  viability, T/C: 28.6%

## Nc1ccn(C2OC(CO)C(O)C2(F)F)c(=O)n1 (stereo unspecified) + Nc1ccc(C#CCN(C(=O)Cc2ncc(C(F)(F)F)cc2C(F)(F)F)c2ccc(F)cc2)nn1
Second compound 0.0316 µM
  IC50: 0.0494 µM
Second compound 0.1 µM
  IC50: 0.0499 µM
Second compound 0.316 µM
  IC50: 0.0483 µM
Second compound 1 µM
  IC50: 0.0462 µM
Second compound 3.16 µM
  IC50: 0.0476 µM
Second compound 10 µM
  IC50: 0.0506 µM
[1]
  viability, T/C: 77.1%
[2]
  viability, T/C: 7.33%
[3]
  viability, T/C: 5.99%
[4]
  viability, T/C: 6.45%
[25]
  viability, T/C: 6.94%
[26]
  viability, T/C: 6.48%
[5]
  viability, T/C: 77.7%
[6]
  viability, T/C: 7.8%
[7]
  viability, T/C: 7.04%
[8]
  viability, T/C: 5.04%
[27]
  viability, T/C: 8.53%
[28]
  viability, T/C: 6.25%
[9]
  viability, T/C: 75%
[10]
  viability, T/C: 7.13%
[11]
  viability, T/C: 7.6%
[12]
  viability, T/C: 6.15%
[29]
  viability, T/C: 6.48%
[30]
  viability, T/C: 7.03%
[13]
  viability, T/C: 70.9%
[14]
  viability, T/C: 7.27%
[15]
  viability, T/C: 7.19%
[16]
  viability, T/C: 7.47%
[31]
  viability, T/C: 6.86%
[32]
  viability, T/C: 6.1%
[17]
  viability, T/C: 73.6%
[18]
  viability, T/C: 7.11%
[19]
  viability, T/C: 6.48%
[20]
  viability, T/C: 5.97%
[33]
  viability, T/C: 6.64%
[34]
  viability, T/C: 8.77%
[21]
  viability, T/C: 78%
[22]
  viability, T/C: 9.42%
[23]
  viability, T/C: 7.4%
[24]
  viability, T/C: 7.48%
[35]
  viability, T/C: 6.25%
[36]
  viability, T/C: 7%
